From US20250170248A1, “SMARCA DEGRADERS AND USES THEREOF” (Kymera Therapeutics, Inc., priority 2021, published 2025) come the findings set out here.

A word on the Dmax: it is the greatest extent of degradation seen. Broadly, the DC50 is the concentration giving 50% degradation.

What all share (assay type): cell-based
Test [1] has as its target T1, SMARCA4 (Homo sapiens, UniProt P51532).
T1 construct: SMARCA2/SMARCA4 protein degradation selectivity in MV4-11 cells; endogenous in cells; host or cells: MV4-11
In words: SMARCA4 Western blot degradation in MV4-11 cells. The following applies: 24 h. As for the experimental part:
Example 11. SMARCA2 and SMARCA4 Western Blot MV4-11 Degradation
Cells were seeded into 6-well plates (MV4-11:4×10^6 cells/well/1 ml) and 1 ml of 2× compound solution was added into the well to make the final concentration and the plates were mixed well and incubated for 24 hours (No cytotoxicity was observed). The cell were collected with media and spun at 3000 rpm for 5 minutes. The supernatant was aspirated and the well and the cells were washed with cold PBS once and combined for centrifugation again; the supernatant aspirated again. 200 uL pre-chilled RIPA lysis buffer (Boston BioProducts BP-115D) with protease/phosphatase inhibitor (Roche 05892791001/Roche 04906837001) was directly added into the tube to lyze the cells for 20 minutes on ice. The cell lysate were collected into EP tubes and spun at 13000 rpm for 20 minutes and 72 uL supernatant was transferred to a fresh EP tube containing 18 μL of 5× loading buffer (Beyotime Bio P0015) to make the loading samples. The samples were heated to 100° C. for 10 minutes and cooled to RT and microcentrifuged. 20 μL of samples were loaded onto SDS-PAGE gel (Novex, WG1402BOX) and the gel was run at 80 V for 20 minutes and 120 V for 1.5 hours. The samples were electrotransfer to a NC membrane using wet-transfer method with 250 mA for 2.5 hours. The membrane was blocked with LICOR blocking buffer (LI COR,927-50000) for 1 hour. The membrane was washed three times with TBST(CST #9997S), 5 minutes each. Incubation was performed with primary antibody prepared in blocking buffer with 0.1% Tween-20 (Solarbio, P8220) at 4° C. overnight (Anti-SMARCA2/BRM antibody (ab15597) 1:500; Anti-BRG1 antibody [EPR3912](ab108318) 1:1000; Rabbit anti-Bafl80 antibody [EPR15860](Abcam,ab196022) 1:1000; mouse anti-beta-Actin (8H10D10) (CST #3700) 1:10000). The membrane was washed three times with TBST, 5 minutes each. Incubation with secondary antibody was performed for 1 hour at RT (anti-rabbit IgG (Licor,926-32211) 1:5000; anti-mouse IgG (LI-COR, 926-68070) 1:5000). The membrane was washed three times with 5 minutes each and lastly the LiCOR was read.
The letter codes for SMARCA2/4 degradation potency (DC50) include: A (<1 nM), B (1-10 nM), C (>10-100 nM), and D (>100 nM). The letter codes for the percentage of SMARCA2/4 degradation after 24 hours (Dmax %) include: A (>90% degradation), B (>70-90% degradation), C (50-70% degradation), and D (<50% degradation). The letter codes of SMARCA2/4 selectivity include: A (>500 fold), B (>100-500 fold), C (10-100 fold), and D (<10 fold). Table 8. SMARCA2/4 Selectivity Results
In general terms: A western blot detects proteins with antibodies after separation by electrophoresis.

For test [2], the target named is T2, SMARCA2 (Homo sapiens, UniProt P51531). Description: SMARCA2 Western blot degradation in MV4-11 cells. Further details: SMARCA2/SMARCA4 protein degradation selectivity in MV4-11 cells; endogenous in cells; host or cells: MV4-11. As to conditions: for Dmax: MV4-11, MV4-11 cells, read-out: SMARCA2 MSD MV411 degradation 24 h: average Dmax %; for Dmax / DC50 / SMARCA2 MSD MV411 degradation 24 h: average Dmax %: 24 h; for DC50: read-out: SMARCA2 MSD MV411 degradation 24 h: Mean external-Abs DC50.

In test [3] the target is T2, SMARCA2. In words: MSD SMARCA2 degradation in A549 cell line. The following applies: for Dmax: A549, A549 cells; for Dmax / DC50: 24 h; for DC50 / SMARCA2 MSD A549 degradation 24 h: Average Dmax %: A549 cells; for DC50: read-out: SMARCA2 MSD A549 degradation 24 h: Average external-Abs DC50. Here is the method: Example 10. MSD SMARCA2 Degradation in A549 Cell Line
Cells were seeded into 96-well plates (A549 cells: 2×10^4 cells/well/100 ul media) and incubated overnight. The next day, 200 nL compound were added into the intermediate plate with Echo (Labcyte 550) from source plate containing a 3-fold serial dilution from top concentration of 1 mM. The culture medium was changed with 8 0ul of fresh medium and 80 μL of 2× compound solution was added into the well to make a final concentration of 1000 nM, 333.3 nM, 111.1 nM, 37.04 nM, 12.35 nM, 4.115 nM, 1.372 nM, 0.457 nM, 0.152 nM and 0 nM (DMSO). The wells were mixed and then incubated for 24 hours. The media was aspirated from the cultures and 60 ul pre-chilled PIPA lysis buffer (Boston BioProducts BP-115D) with protease/phosphatase inhibitor (Roche 05892791001/Roche 04906837001) was added into the well to lyze the cells for 20 minutes at 4° C. The MSD plate (L15XA) was coated with 40 uL cell lysate and incubated at 4° C. overnight. The next day, the plate was washed three times with TBST (CST #9997S), 150 ul/well. The MSD plates was blocked with 150 ul blocking buffer per well and shaked for 1 hr at RT, 600 rpm. The blocking buffer was 3% Blocker A (MSD, R93BA-4) in TBST. The MSD plate was washed three times with 150 uL/well of TBST and 25 ul/well of detection antibody (Rabbit anti-SMARCA2/BRM antibody, 100 μg/mL, ab223735) was added at final concentration of 1 μg/mL diluted in 1% Blocking buffer and shaken for 1 hour at RT, 600 rpm. The MSD plate was washed three times with 150 ul/well of TBST and 25 ul/well of SULFO-TAG anti-rabbit antibody (MSD, R32AB-1) was added at final concentration of 1 μg/ml diluted in 1% Blocking buffer and shaken for 1 hour at RT, 600 rpm. The MSD plate was washed three times with 150 uL/well of TBST and 150 ul/well of 2× MSD reading buffer diluted from 4× (MSD, R92TC-2) with water was added. Lastly, the MSD instrument was read.
The letter codes for SMARCA2 degradation potency (DC50) include: A (<10 nM), B (10-50 nM), C (>50-100 nM), and D (>100 nM). The letter codes for the percentage of SMARCA degradation after 24 hours (Dmax %) include: A (>90% degradation), B (>70-90% degradation), C (50-70% degradation), and D (<50% degradation).

T2 sequence (P51531 whole entry): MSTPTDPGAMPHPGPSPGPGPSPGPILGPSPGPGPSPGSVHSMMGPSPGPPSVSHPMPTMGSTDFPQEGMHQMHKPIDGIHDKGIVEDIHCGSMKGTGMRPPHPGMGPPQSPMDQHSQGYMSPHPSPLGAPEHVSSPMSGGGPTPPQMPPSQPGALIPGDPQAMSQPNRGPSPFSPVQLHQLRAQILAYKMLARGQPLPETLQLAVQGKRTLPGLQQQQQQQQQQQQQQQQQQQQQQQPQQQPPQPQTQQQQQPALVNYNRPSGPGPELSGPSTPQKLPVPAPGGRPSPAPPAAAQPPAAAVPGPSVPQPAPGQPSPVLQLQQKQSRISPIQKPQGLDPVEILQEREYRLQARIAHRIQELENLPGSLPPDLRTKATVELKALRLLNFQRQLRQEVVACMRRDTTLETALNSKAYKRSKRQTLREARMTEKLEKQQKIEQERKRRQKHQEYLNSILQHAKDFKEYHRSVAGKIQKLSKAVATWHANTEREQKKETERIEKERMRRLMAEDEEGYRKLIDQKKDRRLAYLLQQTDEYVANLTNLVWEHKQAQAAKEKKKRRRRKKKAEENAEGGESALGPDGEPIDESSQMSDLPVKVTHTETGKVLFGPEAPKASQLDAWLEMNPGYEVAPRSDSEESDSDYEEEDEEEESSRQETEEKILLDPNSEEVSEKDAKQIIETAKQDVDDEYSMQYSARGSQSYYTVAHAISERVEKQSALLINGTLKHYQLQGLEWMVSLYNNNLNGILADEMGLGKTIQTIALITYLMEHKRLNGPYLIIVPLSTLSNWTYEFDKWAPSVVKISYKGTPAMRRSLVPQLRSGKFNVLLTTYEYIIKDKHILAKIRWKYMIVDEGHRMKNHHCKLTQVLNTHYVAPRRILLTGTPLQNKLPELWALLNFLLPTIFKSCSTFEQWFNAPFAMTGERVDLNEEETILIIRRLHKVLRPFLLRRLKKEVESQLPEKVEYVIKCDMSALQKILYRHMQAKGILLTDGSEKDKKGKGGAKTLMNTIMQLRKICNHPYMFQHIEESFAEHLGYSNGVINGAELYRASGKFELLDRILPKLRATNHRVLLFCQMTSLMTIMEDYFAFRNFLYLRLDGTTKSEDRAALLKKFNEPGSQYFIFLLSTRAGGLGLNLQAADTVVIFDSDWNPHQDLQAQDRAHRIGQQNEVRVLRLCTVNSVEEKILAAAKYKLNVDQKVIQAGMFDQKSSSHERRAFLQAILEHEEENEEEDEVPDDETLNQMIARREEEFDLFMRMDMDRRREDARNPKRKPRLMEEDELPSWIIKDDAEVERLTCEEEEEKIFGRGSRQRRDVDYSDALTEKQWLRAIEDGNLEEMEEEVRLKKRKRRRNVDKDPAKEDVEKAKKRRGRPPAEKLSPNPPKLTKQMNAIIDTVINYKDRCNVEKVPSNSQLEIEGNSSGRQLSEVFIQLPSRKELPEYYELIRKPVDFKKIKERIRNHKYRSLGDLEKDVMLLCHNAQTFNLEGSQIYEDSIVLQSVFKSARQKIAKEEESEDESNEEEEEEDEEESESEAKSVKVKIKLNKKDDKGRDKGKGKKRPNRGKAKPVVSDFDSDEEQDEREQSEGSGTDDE
T1 sequence (P51532 whole entry): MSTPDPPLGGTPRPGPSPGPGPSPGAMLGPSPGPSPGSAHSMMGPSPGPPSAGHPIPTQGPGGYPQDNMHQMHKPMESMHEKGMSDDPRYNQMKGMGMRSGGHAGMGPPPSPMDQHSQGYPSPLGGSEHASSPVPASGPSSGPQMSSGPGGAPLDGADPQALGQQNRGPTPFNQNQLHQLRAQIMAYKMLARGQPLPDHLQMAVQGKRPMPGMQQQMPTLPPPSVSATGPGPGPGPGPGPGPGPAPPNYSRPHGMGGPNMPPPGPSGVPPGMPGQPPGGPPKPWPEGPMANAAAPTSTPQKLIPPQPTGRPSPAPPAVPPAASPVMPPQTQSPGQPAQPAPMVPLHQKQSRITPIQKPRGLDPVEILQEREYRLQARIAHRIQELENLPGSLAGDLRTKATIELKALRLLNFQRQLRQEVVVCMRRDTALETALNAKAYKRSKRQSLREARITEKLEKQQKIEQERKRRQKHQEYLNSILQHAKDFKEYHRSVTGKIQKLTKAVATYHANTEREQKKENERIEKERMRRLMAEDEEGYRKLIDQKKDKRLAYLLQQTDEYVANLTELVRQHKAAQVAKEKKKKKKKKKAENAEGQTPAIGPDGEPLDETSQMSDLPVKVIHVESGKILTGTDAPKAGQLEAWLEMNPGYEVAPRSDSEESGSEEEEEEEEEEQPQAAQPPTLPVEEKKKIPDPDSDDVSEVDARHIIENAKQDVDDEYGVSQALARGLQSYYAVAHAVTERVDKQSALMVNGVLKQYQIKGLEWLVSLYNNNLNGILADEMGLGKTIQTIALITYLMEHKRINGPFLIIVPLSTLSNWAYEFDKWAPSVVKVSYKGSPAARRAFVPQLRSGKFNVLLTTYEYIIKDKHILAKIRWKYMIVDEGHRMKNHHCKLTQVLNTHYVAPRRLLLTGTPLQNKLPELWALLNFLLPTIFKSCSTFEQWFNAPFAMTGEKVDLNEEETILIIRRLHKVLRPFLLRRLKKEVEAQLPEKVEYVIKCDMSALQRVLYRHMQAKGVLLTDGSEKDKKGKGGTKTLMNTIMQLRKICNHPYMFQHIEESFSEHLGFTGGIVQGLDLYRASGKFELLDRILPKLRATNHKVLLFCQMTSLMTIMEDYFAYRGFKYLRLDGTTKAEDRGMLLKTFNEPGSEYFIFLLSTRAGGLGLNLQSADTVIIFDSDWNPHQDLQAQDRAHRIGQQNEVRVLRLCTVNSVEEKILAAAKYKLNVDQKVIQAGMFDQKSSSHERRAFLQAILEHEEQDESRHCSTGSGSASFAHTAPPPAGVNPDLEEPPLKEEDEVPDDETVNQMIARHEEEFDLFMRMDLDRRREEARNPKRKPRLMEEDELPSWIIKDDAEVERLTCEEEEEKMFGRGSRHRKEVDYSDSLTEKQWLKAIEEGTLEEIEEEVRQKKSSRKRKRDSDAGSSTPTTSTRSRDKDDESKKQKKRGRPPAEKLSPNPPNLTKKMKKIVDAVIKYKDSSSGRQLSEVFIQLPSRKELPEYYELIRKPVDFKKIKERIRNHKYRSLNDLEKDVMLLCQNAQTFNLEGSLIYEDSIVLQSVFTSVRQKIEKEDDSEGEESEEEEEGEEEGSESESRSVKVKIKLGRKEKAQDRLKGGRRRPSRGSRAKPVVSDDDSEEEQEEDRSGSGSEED

Turning to `C#Cc1ccc(CNC(=O)[C@@H]2C[C@@H](O)CN2C(=O)[C@@H](NC(=O)N2CC3(CC(N4CC(N5CCC(c6cnc(N7CCc8[nH]c9nnc(-c%10ccccc%10O)cc9c8[C@H]7C)nc6)CC5)C4)C3)C2)C(C)(C)C)cc1` [I-268], the Dmax is 50 to 70% in test [1] (MV4-11, MV4-11 cells, read-out: SMARCA4 MSD MV411 degradation 24 h: average Dmax %); 70 to 90% in test [2]; greater than 90% in test [3]. Moreover, the DC50 in test [1] (MV4-11 cells, read-out: SMARCA4 MSD MV411 degradation 24 h: Mean external-Abs DC50) was greater than 100 nM; in test [2] (MV4-11 cells) it was 10 to 100 nM; in test [3], greater than 100 nM. Moreover, in test [2] (SMARCA2/4 selectivity, MV4-11 cells), the “Selectivity in MV411” value was “C (C (10-100 fold))”.
For the molecule `Cc1ncsc1-c1ccc(CNC(=O)[C@@H]2C[C@@H](O)CN2C(=O)[C@@H](NC(=O)[C@H]2CCC3(CC2)C[C@H](N2CCN(c4cnc(N5CCc6[nH]c7nnc(-c8ccccc8O)cc7c6[C@H]5C)nc4)CC2)C3)C(C)(C)C)cc1` (single isomer, unassigned) [I-118], in test [2] (MV4-11 cells), the “SMARCA2 MSD MV411 degradation 24 h: average Dmax %” value is reported as “C (C (50-70% degradation))” and the DC50 was 10 to 100 nM. For the same molecule, in test [3], the “SMARCA2 MSD A549 degradation 24 h: Average Dmax %” value is “B (B (>70-90% degradation))” and the DC50 was greater than 100 nM.
On to `C#Cc1ccc(CNC(=O)[C@@H]2C[C@@H](O)CN2C(=O)[C@@H](NC(=O)[C@H]2CCC3(CC2)C[C@H](N2CCC(c4cnc(N5CCN6c7cc(-c8cccc(Cl)c8O)nnc7NC[C@H]6C5)nc4)CC2)C3)C(C)(C)C)cc1` (single isomer, unassigned) [I-105], for which the Dmax in test [2] lay within 50 to 70%. Further, the DC50 in test [2] (MV4-11 cells) fell in the range of 10 to 100 nM. Besides, in test [3], the “SMARCA2 MSD A549 degradation 24 h: Average Dmax %” value is on record as “A (A (>90% degradation))” and the DC50 is greater than 100 nM.
In test [3], `Cc1ncsc1-c1ccc(CNC(=O)[C@@H]2C[C@@H](O)CN2C(=O)[C@@H](NC(=O)N2CCC3(CC2)CC(N2CCC(c4cnc(N5CCc6[nH]c7nnc(-c8ccccc8O)cc7c6[C@@H]5C)nc4)CC2)C3)C(C)(C)C)cc1` [I-59] registered a maximal degradation (Dmax) of less than 50%.
In the case of `C#CCOc1cc(C(C(=O)N2C[C@H](O)C[C@H]2C(=O)NCc2ccc(-c3scnc3C)cc2O[C@H]2CC[C@@H](N3CCC(c4cnc(N5CCc6[nH]c7nnc(-c8ccccc8O)cc7c6[C@@H]5C)nc4)CC3)CC2)C(C)C)on1` (some centres unmarked) [I-39], in test [3], the Dmax fell in the range of 50 to 70% and the DC50 was greater than 100 nM.
In the case of `C#Cc1ccc(CNC(=O)[C@@H]2C[C@@H](O)CN2C(=O)[C@@H](NC(=O)[C@H]2CCC3(CC2)C[C@H](N2CCC(c4cnc(N5CCN6c7cc(-c8cccc(Cl)c8O)nnc7NC[C@H]6C5)nc4)CC2)C3)C(C)(C)C)cc1` (single isomer, unassigned) [I-152], in test [2] (MV4-11 cells), the “SMARCA2 MSD MV411 degradation 24 h: average Dmax %” value is reported as “C (C (50-70% degradation))” and the DC50 was in the range of 10 to 100 nM. In addition, in test [3], the Dmax was in the range of 70 to 90% and the DC50 is greater than 100 nM.
On to `Cc1cc(F)ccc1C#CCNC(=O)[C@@H]1C[C@@H](O)CN1C(=O)[C@@H](NC(=O)[C@H]1CCC2(CC1)C[C@H](N1CCC(c3cnc(N4CCN5c6cc(-c7ccccc7O)nnc6NC[C@H]5C4)nc3)CC1)C2)C(C)(C)C` (some centres unmarked) [I-115], for which, in test [3], the DC50 was greater than 100 nM.
For `C#Cc1ccc(CNC(=O)[C@@H]2C[C@@H](O)CN2C(=O)[C@@H](NC(=O)[C@H]2CCC3(CC2)C[C@H](N2CCC(c4cnc(N5CCN6c7cc(-c8cccc(Cl)c8O)nnc7NC[C@@H]6C5)nc4)CC2)C3)C(C)(C)C)cc1` (single isomer, unassigned) [I-153], the results for the Dmax in test [2] and in test [3] were 70 to 90% and greater than 90%, respectively. Also, the values for the DC50 in test [2] (MV4-11 cells) and in test [3] were 1 to 10 nM and greater than 100 nM, respectively.
On the same counts, the results for `Cc1cc(F)ccc1C#CCNC(=O)[C@@H]1C[C@@H](O)CN1C(=O)[C@@H](NC(=O)[C@H]1CCC2(CC1)C[C@H](N1CCC(c3cnc(N4CCN5c6cc(-c7ccccc7O)nnc6NC[C@H]5C4)nc3)CC1)C2)C(C)(C)C` (single isomer, unassigned) [I-106] are less than 50%, less than 50%, greater than 100 nM and greater than 100 nM.
On the same counts, the results for `Cc1ncsc1-c1ccc(CNC(=O)[C@@H]2C[C@@H](O)CN2C(=O)[C@@H](NC(=O)[C@H]2CCC3(CC2)C[C@H](N2CCN(c4cnc(N5CCc6[nH]c7nnc(-c8ccccc8O)cc7c6[C@H]5C)nc4)CC2)C3)C(C)(C)C)cc1` (single isomer, unassigned) [I-112] are 50 to 70%, greater than 90%, 10 to 100 nM and 50 to 100 nM.
For `C#Cc1ccc(CNC(=O)[C@@H]2C[C@@H](O)CN2C(=O)[C@@H](NC(=O)C2CCC3(CC2)CC(N2CCC(c4cnc(N5CCN6c7cc(-c8ccccc8O)nnc7NC[C@H]6C5)nc4)CC2)C3)C2CCNCC2)cc1` (some centres unmarked) [I-132] the same measures were less than 50%, less than 50%, greater than 100 nM and greater than 100 nM.
With `C#Cc1ccc(CNC(=O)[C@@H]2C[C@@H](O)CN2C(=O)[C@@H](NC(=O)[C@H]2CCC3(CC2)C[C@H](N2CCC(c4cnc(N5CCN6c7cc(-c8cccc(F)c8O)nnc7NC[C@H]6C5)nc4)CC2)C3)C(C)(C)C)cc1` (single isomer, unassigned) [I-157], in test [2] (MV4-11 cells), the “SMARCA2 MSD MV411 degradation 24 h: average Dmax %” value is “B (B (>70-90% degradation))” and the DC50 lay within 1 to 10 nM. In test [3], the Dmax is greater than 90% and the DC50 was in the range of 50 to 100 nM.
For `C#Cc1ccc(CNC(=O)[C@@H]2C[C@@H](O)CN2C(=O)[C@@H](NC(=O)[C@H]2CCC3(CC2)C[C@H](N2CCC(c4cnc(N5CCN6c7cc(-c8cccc(Cl)c8O)nnc7NC[C@@H]6C5)nc4)CC2)C3)C(C)(C)C)cc1` (single isomer, unassigned) [I-154], in test [2] (MV4-11 cells), the “SMARCA2 MSD MV411 degradation 24 h: average Dmax %” value is on record as “C (C (50-70% degradation))” and the DC50 is 10 to 100 nM. Also, in test [3], the “SMARCA2 MSD A549 degradation 24 h: Average Dmax %” value is recorded as “A (A (>90% degradation))” and the DC50 is greater than 100 nM.
